Tests used:
[1] = biological target: Cyclin-dependent kinase 11B (Homo sapiens) (UniProt P21127); assay: Inhibition of CDC2L1 (unknown origin) assessed as remaining activity at 1 uM by Kinome scan method relative to control
[2] = biological target: Mitogen-activated protein kinase kinase kinase 12 (Homo sapiens) (UniProt Q12852); assay: Inhibition of DLK (unknown origin) assessed as remaining activity at 1 uM by Kinome scan method relative to control
[3] = biological target: Serine/threonine-protein kinase PAK 5 (Homo sapiens) (UniProt Q9P286); assay: Inhibition of PAK7 (unknown origin) assessed as remaining activity at 1 uM by Kinome scan method relative to control
[4] = biological target: Serine/threonine-protein kinase RIO2 (Homo sapiens) (UniProt Q9BVS4); assay: Inhibition of RIOK2 (unknown origin) assessed as remaining activity at 1 uM by Kinome scan method relative to control
Chain of Serine/threonine-protein kinase RIO2 (Homo sapiens) (Q9BVS4 whole entry, looked up): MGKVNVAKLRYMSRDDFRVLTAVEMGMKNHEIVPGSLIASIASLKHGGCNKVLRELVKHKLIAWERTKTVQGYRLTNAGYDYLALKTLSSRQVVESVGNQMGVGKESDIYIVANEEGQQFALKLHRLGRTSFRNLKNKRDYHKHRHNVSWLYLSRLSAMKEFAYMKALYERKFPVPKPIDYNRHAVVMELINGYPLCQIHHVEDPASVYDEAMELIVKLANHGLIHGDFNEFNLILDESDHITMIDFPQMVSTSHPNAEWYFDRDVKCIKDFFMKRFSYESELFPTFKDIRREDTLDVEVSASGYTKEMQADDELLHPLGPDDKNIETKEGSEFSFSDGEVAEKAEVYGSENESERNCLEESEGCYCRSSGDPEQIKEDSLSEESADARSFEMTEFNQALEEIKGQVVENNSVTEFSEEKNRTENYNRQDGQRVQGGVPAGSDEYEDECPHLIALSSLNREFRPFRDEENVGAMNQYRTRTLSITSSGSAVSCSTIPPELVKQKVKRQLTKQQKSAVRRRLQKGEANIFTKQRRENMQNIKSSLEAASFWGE

[5] = biological target: Tyrosine-protein kinase HCK (Homo sapiens) (UniProt P08631); assay: Inhibition of HCK (unknown origin) assessed as remaining activity at 1 uM by Kinome scan method relative to control
[6] = biological target: BMP-2-inducible protein kinase (Homo sapiens) (UniProt Q9NSY1); assay: Inhibition of BIKE (unknown origin) assessed as remaining activity at 1 uM by Kinome scan method relative to control
[7] = biological target: Myosin-IIIb (Homo sapiens) (UniProt Q8WXR4); assay: Inhibition of MYO3B (unknown origin) assessed as remaining activity at 1 uM by Kinome scan method relative to control
[8] = biological target: Mitogen-activated protein kinase kinase kinase kinase 4 (Homo sapiens) (UniProt O95819); assay: Inhibition of MAP4K4 (unknown origin) assessed as remaining activity at 1 uM by Kinome scan method relative to control
[9] = biological target: Dual specificity tyrosine-phosphorylation-regulated kinase 1A (Homo sapiens) (UniProt Q13627); assay: Inhibition of DYRK1A (unknown origin) assessed as remaining activity at 1 uM by Kinome scan method relative to control
[10] = biological target: Cyclin-dependent kinase 14 (Homo sapiens) (UniProt O94921); assay: Inhibition of PFTK1 (unknown origin) assessed as remaining activity at 1 uM by Kinome scan method relative to control
[11] = biological target: 3-phosphoinositide-dependent protein kinase 1 (Homo sapiens) (UniProt O15530); assay: Inhibition of PDPK1 (unknown origin) assessed as remaining activity at 1 uM by Kinome scan method relative to control
Chain of 3-phosphoinositide-dependent protein kinase 1 (Homo sapiens) (O15530 whole entry): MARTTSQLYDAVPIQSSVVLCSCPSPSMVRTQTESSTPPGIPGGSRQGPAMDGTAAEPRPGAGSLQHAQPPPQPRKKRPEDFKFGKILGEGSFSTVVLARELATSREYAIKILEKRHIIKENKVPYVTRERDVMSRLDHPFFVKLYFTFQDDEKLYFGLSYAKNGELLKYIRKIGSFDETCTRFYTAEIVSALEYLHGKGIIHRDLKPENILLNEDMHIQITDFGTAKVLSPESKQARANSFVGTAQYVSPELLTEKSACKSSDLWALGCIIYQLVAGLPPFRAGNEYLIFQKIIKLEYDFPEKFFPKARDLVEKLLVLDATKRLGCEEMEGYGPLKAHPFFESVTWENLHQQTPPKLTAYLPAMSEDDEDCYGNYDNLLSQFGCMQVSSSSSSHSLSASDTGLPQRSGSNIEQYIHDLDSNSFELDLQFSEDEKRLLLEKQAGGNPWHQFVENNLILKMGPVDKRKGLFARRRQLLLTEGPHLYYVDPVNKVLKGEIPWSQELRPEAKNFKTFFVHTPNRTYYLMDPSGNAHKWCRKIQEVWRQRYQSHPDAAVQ

[12] = biological target: Protein-tyrosine kinase 6 (Homo sapiens) (UniProt Q13882); assay: Inhibition of BRK (unknown origin) assessed as remaining activity at 1 uM by Kinome scan method relative to control
Chain of Protein-tyrosine kinase 6 (Homo sapiens) (Q13882 whole entry, looked up): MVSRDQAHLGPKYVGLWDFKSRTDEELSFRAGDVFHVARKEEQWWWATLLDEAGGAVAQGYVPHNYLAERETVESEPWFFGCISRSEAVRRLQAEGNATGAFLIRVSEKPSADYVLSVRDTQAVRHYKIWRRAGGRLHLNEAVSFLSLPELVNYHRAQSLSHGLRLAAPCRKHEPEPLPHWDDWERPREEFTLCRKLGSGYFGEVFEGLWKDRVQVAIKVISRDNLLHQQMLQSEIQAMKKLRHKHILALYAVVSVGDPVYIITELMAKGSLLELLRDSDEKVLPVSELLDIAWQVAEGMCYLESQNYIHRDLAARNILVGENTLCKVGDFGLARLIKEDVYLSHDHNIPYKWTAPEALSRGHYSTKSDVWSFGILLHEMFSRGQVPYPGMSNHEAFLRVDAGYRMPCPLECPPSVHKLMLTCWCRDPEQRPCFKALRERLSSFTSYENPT

[13] = biological target: T1, Serine/threonine-protein kinase PLK4 (Homo sapiens) (UniProt O00444); assay: Inhibition of PLK4 (unknown origin) assessed as remaining activity at 1 uM by Kinome scan method relative to control
T1 sequence (whole entry): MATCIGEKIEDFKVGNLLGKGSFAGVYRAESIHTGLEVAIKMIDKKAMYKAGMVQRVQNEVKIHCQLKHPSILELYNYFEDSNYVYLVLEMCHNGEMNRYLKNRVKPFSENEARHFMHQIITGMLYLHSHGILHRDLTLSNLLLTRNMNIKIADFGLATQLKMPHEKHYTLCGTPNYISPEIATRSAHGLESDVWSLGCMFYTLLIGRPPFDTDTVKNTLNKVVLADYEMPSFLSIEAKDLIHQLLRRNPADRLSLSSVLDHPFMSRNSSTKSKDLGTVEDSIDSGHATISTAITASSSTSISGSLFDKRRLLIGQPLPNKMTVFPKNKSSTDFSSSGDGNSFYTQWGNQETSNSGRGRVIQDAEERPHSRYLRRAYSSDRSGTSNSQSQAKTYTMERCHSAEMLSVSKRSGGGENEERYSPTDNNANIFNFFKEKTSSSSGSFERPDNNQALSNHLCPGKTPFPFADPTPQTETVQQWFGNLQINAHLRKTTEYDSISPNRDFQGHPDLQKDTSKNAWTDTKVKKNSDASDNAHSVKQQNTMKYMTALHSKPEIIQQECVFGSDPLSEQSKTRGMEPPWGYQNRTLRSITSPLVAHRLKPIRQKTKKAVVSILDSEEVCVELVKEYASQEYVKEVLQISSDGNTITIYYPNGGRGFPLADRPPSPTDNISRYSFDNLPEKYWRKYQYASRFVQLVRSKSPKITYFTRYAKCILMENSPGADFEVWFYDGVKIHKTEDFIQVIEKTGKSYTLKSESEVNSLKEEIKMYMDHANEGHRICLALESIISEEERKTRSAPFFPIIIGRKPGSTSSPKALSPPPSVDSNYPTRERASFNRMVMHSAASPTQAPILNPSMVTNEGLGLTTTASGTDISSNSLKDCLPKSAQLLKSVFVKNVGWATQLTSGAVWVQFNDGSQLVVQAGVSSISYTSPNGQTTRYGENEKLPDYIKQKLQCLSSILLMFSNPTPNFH

[14] = biological target: Serine/threonine-protein kinase 26 (Homo sapiens) (UniProt Q9P289); assay: Inhibition of MST4 (unknown origin) assessed as remaining activity at 1 uM by Kinome scan method relative to control
Chain of Serine/threonine-protein kinase 26 (Homo sapiens) (Q9P289 2-416 limits assumed): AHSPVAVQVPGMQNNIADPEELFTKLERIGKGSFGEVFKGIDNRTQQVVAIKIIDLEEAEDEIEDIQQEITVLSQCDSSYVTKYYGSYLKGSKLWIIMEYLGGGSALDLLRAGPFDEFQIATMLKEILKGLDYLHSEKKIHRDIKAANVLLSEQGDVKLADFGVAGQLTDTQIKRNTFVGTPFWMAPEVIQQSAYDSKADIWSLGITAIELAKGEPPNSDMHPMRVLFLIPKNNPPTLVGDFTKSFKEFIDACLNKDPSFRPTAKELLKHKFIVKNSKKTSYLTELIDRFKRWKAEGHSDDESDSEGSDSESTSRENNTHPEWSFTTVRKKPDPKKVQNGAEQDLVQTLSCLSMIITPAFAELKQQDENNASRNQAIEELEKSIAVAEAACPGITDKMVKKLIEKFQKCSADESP

[15] = tested on: Mast/stem cell growth factor receptor Kit (Homo sapiens), P10721 [D816V]; assay: Inhibition of KIT D816V mutant (unknown origin) assessed as remaining activity at 1 uM by Kinome scan method relative to control
[16] = biological target: Hormonally up-regulated neu tumor-associated kinase (Homo sapiens) (UniProt P57058); assay: Inhibition of HUNK (unknown origin) assessed as remaining activity at 1 uM by Kinome scan method relative to control
[17] = biological target: Protein kinase C eta type (Homo sapiens) (UniProt P24723); assay: Inhibition of PRKCH (unknown origin) assessed as remaining activity at 1 uM by Kinome scan method relative to control
Chain of Protein kinase C eta type (Homo sapiens) (P24723 whole entry): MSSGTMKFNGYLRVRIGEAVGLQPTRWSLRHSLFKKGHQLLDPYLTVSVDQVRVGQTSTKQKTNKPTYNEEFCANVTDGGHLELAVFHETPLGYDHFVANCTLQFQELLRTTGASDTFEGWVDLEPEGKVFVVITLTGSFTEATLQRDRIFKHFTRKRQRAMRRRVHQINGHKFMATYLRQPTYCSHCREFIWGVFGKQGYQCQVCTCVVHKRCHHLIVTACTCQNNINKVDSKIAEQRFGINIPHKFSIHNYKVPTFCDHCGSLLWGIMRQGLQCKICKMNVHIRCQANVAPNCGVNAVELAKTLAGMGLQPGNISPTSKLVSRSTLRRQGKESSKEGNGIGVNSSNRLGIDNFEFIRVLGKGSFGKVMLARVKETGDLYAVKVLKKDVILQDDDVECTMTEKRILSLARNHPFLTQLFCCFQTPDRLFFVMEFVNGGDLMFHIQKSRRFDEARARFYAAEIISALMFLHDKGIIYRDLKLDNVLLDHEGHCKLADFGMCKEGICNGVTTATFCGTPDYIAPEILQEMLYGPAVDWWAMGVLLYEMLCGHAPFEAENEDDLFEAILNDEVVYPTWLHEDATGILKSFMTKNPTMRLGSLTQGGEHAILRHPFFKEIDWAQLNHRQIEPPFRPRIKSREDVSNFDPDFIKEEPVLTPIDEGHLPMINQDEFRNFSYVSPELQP

[18] = biological target: Mitogen-activated protein kinase 8 (Homo sapiens) (UniProt P45983); assay: Inhibition of JNK1 (unknown origin) assessed as remaining activity at 1 uM by Kinome scan method relative to control
[19] = biological target: Serine/threonine-protein kinase BRSK2 (Homo sapiens) (UniProt Q8IWQ3); assay: Inhibition of BRSK2 (unknown origin) assessed as remaining activity at 1 uM by Kinome scan method relative to control
[20] = biological target: Maternal embryonic leucine zipper kinase (Homo sapiens) (UniProt Q14680); assay: Inhibition of MELK (unknown origin) assessed as remaining activity at 1 uM by Kinome scan method relative to control
[21] = biological target: Interferon-induced, double-stranded RNA-activated protein kinase (Homo sapiens) (UniProt P19525); assay: Inhibition of PRKR (unknown origin) assessed as remaining activity at 1 uM by Kinome scan method relative to control
Chain of Interferon-induced, double-stranded RNA-activated protein kinase (Homo sapiens) (P19525 whole entry, the tested form may be a part): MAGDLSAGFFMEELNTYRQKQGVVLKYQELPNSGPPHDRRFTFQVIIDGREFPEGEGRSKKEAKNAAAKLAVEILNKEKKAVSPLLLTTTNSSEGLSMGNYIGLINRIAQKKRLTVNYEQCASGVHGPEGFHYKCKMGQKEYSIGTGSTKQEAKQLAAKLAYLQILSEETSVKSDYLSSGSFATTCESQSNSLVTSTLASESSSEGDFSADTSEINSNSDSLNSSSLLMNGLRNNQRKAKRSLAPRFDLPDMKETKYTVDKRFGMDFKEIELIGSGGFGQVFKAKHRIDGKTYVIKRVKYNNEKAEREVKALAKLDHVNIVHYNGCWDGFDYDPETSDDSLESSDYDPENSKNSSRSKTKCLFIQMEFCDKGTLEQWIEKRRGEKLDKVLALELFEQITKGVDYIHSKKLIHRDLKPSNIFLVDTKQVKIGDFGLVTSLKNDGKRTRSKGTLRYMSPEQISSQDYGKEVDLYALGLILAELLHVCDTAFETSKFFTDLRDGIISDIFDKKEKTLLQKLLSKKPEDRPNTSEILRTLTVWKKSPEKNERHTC

[22] = biological target: Ribosomal protein S6 kinase alpha-3 (Homo sapiens) (UniProt P51812); assay: Inhibition of N-terminal kinase domain RPS6KA3 (unknown origin) assessed as remaining activity at 1 uM by Kinome scan method relative to control
Chain of Ribosomal protein S6 kinase alpha-3 (Homo sapiens) (P51812 whole entry, the tested form may be a part): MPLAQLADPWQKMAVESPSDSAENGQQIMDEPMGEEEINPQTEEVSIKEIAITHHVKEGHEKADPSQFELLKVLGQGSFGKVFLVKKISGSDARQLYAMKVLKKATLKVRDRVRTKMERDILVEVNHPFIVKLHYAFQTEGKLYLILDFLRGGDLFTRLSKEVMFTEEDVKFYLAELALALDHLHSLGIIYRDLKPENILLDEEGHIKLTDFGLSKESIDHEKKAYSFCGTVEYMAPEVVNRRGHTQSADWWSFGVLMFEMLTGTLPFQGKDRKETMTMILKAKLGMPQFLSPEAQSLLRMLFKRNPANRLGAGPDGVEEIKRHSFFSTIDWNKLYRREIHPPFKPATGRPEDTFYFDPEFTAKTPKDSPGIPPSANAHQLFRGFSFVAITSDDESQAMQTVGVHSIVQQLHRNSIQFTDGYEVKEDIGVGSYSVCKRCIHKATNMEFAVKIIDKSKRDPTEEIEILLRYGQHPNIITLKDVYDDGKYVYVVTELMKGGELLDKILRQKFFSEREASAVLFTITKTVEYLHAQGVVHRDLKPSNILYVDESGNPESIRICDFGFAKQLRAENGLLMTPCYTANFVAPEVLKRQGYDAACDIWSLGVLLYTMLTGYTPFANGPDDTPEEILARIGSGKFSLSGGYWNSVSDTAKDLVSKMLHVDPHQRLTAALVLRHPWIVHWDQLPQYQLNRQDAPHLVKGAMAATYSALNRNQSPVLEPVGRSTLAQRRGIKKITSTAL

Chain of Cyclin-dependent kinase 11B (Homo sapiens) (P21127 whole entry): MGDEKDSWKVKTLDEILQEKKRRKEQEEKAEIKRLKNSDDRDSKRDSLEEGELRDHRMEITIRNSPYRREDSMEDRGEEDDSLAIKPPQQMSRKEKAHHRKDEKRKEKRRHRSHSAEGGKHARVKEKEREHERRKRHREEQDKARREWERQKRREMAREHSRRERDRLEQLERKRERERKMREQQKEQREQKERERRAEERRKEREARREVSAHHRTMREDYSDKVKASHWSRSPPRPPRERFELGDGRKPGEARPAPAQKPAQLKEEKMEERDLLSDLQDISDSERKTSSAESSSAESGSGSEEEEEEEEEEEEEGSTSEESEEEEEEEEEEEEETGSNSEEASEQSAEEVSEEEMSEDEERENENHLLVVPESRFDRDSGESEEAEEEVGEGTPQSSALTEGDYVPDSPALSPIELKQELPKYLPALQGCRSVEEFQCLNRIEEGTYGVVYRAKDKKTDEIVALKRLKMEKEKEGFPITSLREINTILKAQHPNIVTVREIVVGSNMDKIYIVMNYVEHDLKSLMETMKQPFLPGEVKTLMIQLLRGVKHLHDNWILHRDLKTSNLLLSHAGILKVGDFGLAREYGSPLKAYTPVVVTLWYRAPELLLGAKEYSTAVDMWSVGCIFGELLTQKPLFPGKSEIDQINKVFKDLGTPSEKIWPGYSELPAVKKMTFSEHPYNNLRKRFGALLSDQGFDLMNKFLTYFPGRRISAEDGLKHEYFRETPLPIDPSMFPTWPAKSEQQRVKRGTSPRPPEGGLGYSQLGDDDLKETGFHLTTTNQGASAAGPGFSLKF

SMILES: Nc1ccccc1Nc1ccc2c(c1)CCc1ccccc1C2=O
- Activity [1]: 94%
- Activity [2]: 98%
- Activity [3]: 91%
- Activity [4]: 85%
- Activity [5]: 93%
- Activity [6]: 50%
- Activity [7]: 93%
- Activity [8]: 94%
- Activity [9]: 92%
- Activity [10]: 94%
- Activity [11]: 90%
- Activity [12]: 97%
- Activity [13]: 98%
- Activity [14]: 96%
- Activity [15]: 85%
- Activity [16]: 91%
- Activity [17]: 90%
- Activity [18]: 97%
- Activity [19]: 91%
- Activity [20]: 86%
- Activity [21]: 86%
- Activity [22]: 97%

SMILES: O=C1c2ccc(Nc3ccc(F)cc3F)cc2CCc2ccc(OC[C@H](O)CO)cc21 [Skepinone-L]
- Activity [1]: 99%
- Activity [2]: 94%
- Activity [3]: 86%
- Activity [4]: 81%
- Activity [5]: 97%
- Activity [6]: 37%
- Activity [7]: 99%
- Activity [8]: 100%
- Activity [9]: 98%
- Activity [10]: 86%
- Activity [11]: 100%
- Activity [12]: 98%
- Activity [13]: 97%
- Activity [14]: 100%
- Activity [15]: 89%
- Activity [16]: 96%
- Activity [17]: 90%
- Activity [18]: 75%
- Activity [19]: 94%
- Activity [20]: 94%
- Activity [21]: 82%
- Activity [22]: 93%
